Numbers after ± are expanded uncertainties.
Experiment: xn = mol fraction of the nth substance listed
Settings: Liquid, Vibrating wire viscometry, x1 = 1

CCCCO [butan-1-ol] + Cc1ccc(C)c(C)c1
viscosity [mPa·s]
Settings	293.15 K	298.15 K	313.15 K	323.15 K	333.15 K	348.15 K	353.15 K
100 kPa	2.969 ± 0.047	2.601 ± 0.042	1.797 ± 0.029	1.429 ± 0.023	1.156 ± 0.019	0.8579 ± 0.015	0.7903 ± 0.014
1000 kPa	3.001 ± 0.048	2.622 ± 0.042	1.813 ± 0.029	1.44 ± 0.024	1.172 ± 0.019	0.8647 ± 0.015	0.7943 ± 0.014
5000 kPa	3.108 ± 0.049	2.715 ± 0.043	1.89 ± 0.03	1.491 ± 0.024	1.227 ± 0.02	0.8956 ± 0.015	0.8284 ± 0.014
10000 kPa	3.244 ± 0.052	2.834 ± 0.045	1.967 ± 0.032	1.556 ± 0.025	1.29 ± 0.021	0.9349 ± 0.016	0.8637 ± 0.015
20000 kPa	3.479 ± 0.055	3.079 ± 0.049	2.14 ± 0.034	1.69 ± 0.027	1.389 ± 0.023	1.016 ± 0.017	0.9473 ± 0.016
30000 kPa	3.788 ± 0.06	3.333 ± 0.053	2.319 ± 0.037	1.829 ± 0.03	1.504 ± 0.025	1.101 ± 0.018	1.04 ± 0.017
40000 kPa	4.078 ± 0.065	3.599 ± 0.057	2.48 ± 0.04	1.975 ± 0.032	1.624 ± 0.026	1.189 ± 0.02	1.102 ± 0.018
50000 kPa	4.401 ± 0.07	3.874 ± 0.061	2.629 ± 0.042	2.125 ± 0.034	1.741 ± 0.028	1.28 ± 0.021	1.21 ± 0.02
60000 kPa	4.74 ± 0.075	4.16 ± 0.066	2.852 ± 0.045	2.281 ± 0.037	1.867 ± 0.03	1.375 ± 0.023	1.295 ± 0.021
70000 kPa	5.076 ± 0.08	4.455 ± 0.071	3.089 ± 0.049	2.443 ± 0.039	2.014 ± 0.032	1.473 ± 0.024	1.384 ± 0.023
80000 kPa	5.438 ± 0.086	4.761 ± 0.075	3.247 ± 0.052	2.61 ± 0.042	2.137 ± 0.034	1.575 ± 0.026	1.473 ± 0.024
100000 kPa	6.164 ± 0.097	5.404 ± 0.085	3.686 ± 0.058	2.962 ± 0.047	2.384 ± 0.038	1.788 ± 0.029	1.676 ± 0.027
120000 kPa	6.979 ± 0.11	6.087 ± 0.096	4.192 ± 0.066	3.335 ± 0.053	2.633 ± 0.042	2.015 ± 0.032	1.857 ± 0.03
140000 kPa	7.843 ± 0.12	6.811 ± 0.11	4.638 ± 0.073	3.682 ± 0.058	2.883 ± 0.046	2.255 ± 0.036	2.037 ± 0.033

Reference: the NIST ThermoML archive (doi:10.1016/j.jct.2016.07.008)
